This is an account of results in US20090030067A1, “Anti-proliferative combination therapy comprising satraplatin or jm118 and a taxane” ((GPC Biotech AG), priority 2005, published 2009).

What is called IC50 is the concentration that inhibits the measured activity by half.

The test system of one data set is A129 cp80. Nature of the data set: SRB cytotoxicity assay, cisplatin-resistant A129 cp80 cell line. Type of data set: cell-based. As for the experimental part:
The parental non-mutated cell line A129 was used as control.
Briefly, cells were plated in 96 well dishes 24 hours prior to compound addition. The assay was terminated with the addition of cold TCA to a final concentration of 10% and the plates were incubated for one hour at 4° C. The plates were then washed 5 times with water and 100 μl of a Sulforhodamine B solution ([…]) was added to each well. The plate was then incubated for 10 minutes at room temperature before removal of unbound dye by washing with 1% acetic acid. The bound dye was solubilized with 10 mM Trizma base and the absorbance read at OD570.
(In general: In SRB staining, fixed cells bind dye roughly in proportion to their protein.)

The subject of another data set is A129. Nature of the data set: SRB cytotoxicity assay, parental A129 cell line. The following applies: 48 hours, mean and standard deviation. Type of data set: cell-based.
For data set [1], the system named is human non small cell lung cancer (NSCLC) cell line H460. Nature of the data set: H460 xenograft model, satraplatin and docetaxel.
Data set [2] concerns human H460 non small cell lung cancer (NSCLC) cell line. Nature of the data set: H460 xenograft model, satraplatin and paclitaxel.
Setting [3] is: docetaxel 25 mg/kg iv d7, d14, of 10 animals.
The mark [4] stands for this setting: paclitaxel 25 mg/kg/day iv, Exp. A.
Where [5] appears, read: paclitaxel 25 mg/kg/day iv, Exp. B.
Where [6] appears, read: paclitaxel 40 mg/kg/day iv, Exp. A.
[7] abbreviates: paclitaxel 40 mg/kg/day iv, Exp. B.
Setting [8] is: satraplatin 35 mg/kg/day po, Exp. B.
The mark [9] stands for this setting: satraplatin 40 mg/kg/day po, Exp. B.
[10] abbreviates: satraplatin 50 mg/kg/day po, Exp. A.

SMILES strings stand for the structures.

Consider `N.N.[Cl][Pt][Cl]` [Cisplatin, cisplatin], for which the half-maximal inhibitory concentration (IC50) in the data set on A129 cp80 (48 hours, SRB assay, mean and standard deviation) came out at 15.1 µM; with A129, 0.23 µM. Moreover, the “RR (relative resistance)” value with A129 cp80 (A129 cp80 versus A129) was 80 +/− 25.
On to `CC(=O)O[C@@]12CO[C@@H]1C[C@H](O)[C@@]1(C)C(=O)[C@H](O)C3=C(C)[C@@H](OC(=O)[C@H](O)[C@@H](NC(=O)OC(C)(C)C)c4ccccc4)C[C@@](O)([C@@H](OC(=O)c4ccccc4)[C@H]21)C3(C)C` [Docetaxel, N-debenzoyl-N-tert-butoxycarbonyl-10-deacetyl paclitaxel], for which the “LCK (Td = 2.7)” value in data set [1] (docetaxel 25 mg/kg iv d7, d14) was found to be 0.76. Besides, the “Max TGI (d)” value in data set [1] (docetaxel 25 mg/kg iv d7, d14, maximum observed on day 13) is listed as 64.7 (13) %. In addition, in data set [1] (setting [3]), the “CR (number of animals with complete tumor regression)” value is given as 0, the Cure came out at 0, the “PR (number of animals with partial tumor regression)” value was 0 and the “Toxic Deaths” value turned out to be 0.
As for `CC(=O)O[C@H]1C(=O)[C@@]2(C)[C@H]([C@H](OC(=O)c3ccccc3)[C@]3(O)C[C@H](OC(=O)[C@H](O)[C@@H](NC(=O)c4ccccc4)c4ccccc4)C(C)=C1C3(C)C)[C@]1(OC(C)=O)CO[C@@H]1C[C@@H]2O` [Paclitaxel, paclitaxel], the LCK is recorded as 0.6 in data set [2] (setting [4]), 0.7 in data set [2] (setting [5]), 0.7 in data set [2] (setting [6]) and 1.0 in data set [2] (setting [7]). Further, the “Max TGI %” value came to 56% in data set [2] (setting [4]), 47% in data set [2] (setting [5]), 64% in data set [2] (setting [6]) and 59% in data set [2] (setting [7]). The Toxic deaths/total in data set [2] (setting [4]), in data set [2] (setting [5]), in data set [2] (setting [6]) and in data set [2] (setting [7]) was 0/10 in each case. In data set [2] (paclitaxel 40 mg/kg/day, in two experiments), the “tumor growth delay equivalent, LCK” value is 0.7-1.0 LCK. For the same molecule, the “tolerability and activity as single agent” value in data set [2] (paclitaxel at both doses tested, 25 and 40 mg/kg/day) was “tolerated and active”.
As for `CC(=O)[O][Pt]([NH2])([Cl])([Cl])([NH]C1CCCCC1)[O]C(C)=O` [Satraplatin, satraplatin], the “Max % BW loss” value in data set [1] (satraplatin 25 mg/kg po d8-12, d15-19) was 6.1%; in data set [1] (satraplatin 35 mg/kg po d8-12, d15-19) it was 9.7%; in data set [2] (setting [8]), 12%; in data set [2] (setting [9]), 16%; in data set [2] (setting [10]), 26%. The “Toxic Deaths” value is 0 in data set [1] (satraplatin 25 mg/kg po d8-12, d15-19, of 10 animals) and 1 in data set [1] (satraplatin 35 mg/kg po d8-12, d15-19, of 10 animals). Also, the Toxic deaths/total in data set [2] (setting [8]) is 0/10; in data set [2] (setting [9]), 4/10; in data set [2] (setting [10]), 9/10.
